Measurements published in US20250041433A1, “PROTEIN-ANTIVIRAL COMPOUND CONJUGATES” (REGENERON PHARMACEUTICALS, INC., priority 2021, published 2025).

Tested on: H1N1 A/Puerto Rico/08/1934-GFP influenza virus
Experiment: organism not typed
Assay type: cell-based, H1N1 A/Puerto Rico/08/1934 influenza virus
Settings: for IC50: MDCK, 20 h, read-out: Antiviral activity of VX-787 free payloads IC50; for antiviral activity of VX-787 derivatives (in words): free payloads

**Q.** With `O=C(O)[C@H]1C2CCC(CC2)[C@@H]1Nc1nc(-c2c(CO)[nH]c3ncc(F)cc23)ncc1F` [Compound 15] as the molecule, how does the IC50 read?
**A.** The IC50 was 240 nM.

**Q.** And the “antiviral activity of VX-787 derivatives (in words)” value?
**A.** Its value is “displayed antiviral activity”.

**Q.** Which results are given for `O=C(NO)[C@H]1C2CCC(CC2)[C@@H]1Nc1nc(-c2c[nH]c3ncc(F)cc23)ncc1F` [Compound 20a]?
**A.** IC50: 3.77 nM; antiviral activity of VX-787 derivatives (in words): displayed antiviral activity

**Q.** Which IC50 does the source give for `O=C(NO)[C@H]1C2CCC(CC2)[C@@H]1Nc1nc(-c2c[nH]c3ncc(F)cc23)nc2sccc12` [Compound 20b] here?
**A.** The IC50 was 9.64 nM.

**Q.** And the “antiviral activity of VX-787 derivatives (in words)” value?
**A.** The value was “displayed antiviral activity”.

**Q.** What does the source list for `Cn1ccc2c(N[C@H]3C4CCC(CC4)[C@@H]3C(=O)NO)nc(-c3c[nH]c4ncc(F)cc34)nc21` [Compound 20c]?
**A.** IC50: 13.8 nM; antiviral activity of VX-787 derivatives (in words): displayed antiviral activity

**Q.** With `O=C(NO)[C@H]1C2CCC(CC2)[C@@H]1Nc1nc(-c2n[nH]c3ncc(F)cc23)ncc1F` [Compound 57] as the molecule, how does the IC50 read?
**A.** The IC50 was 2 nM.

**Q.** How did the IC50 turn out when `O=C(NO)[C@H]1C2CCC(CC2)[C@@H]1Nc1nc(-c2n[nH]c3ncc(F)cc23)nc2sccc12` [Compound 62] was run?
**A.** The IC50 was 2.19 nM.
